Laboratory results: PubChem BioAssay AID330 (DTP/NCI, 2004)
Where “and” joins values, the source holds several entries; their conditions need not be identical. Equal values may be shown once. Toxic doses and inconclusive results are not listed. How the source made its calls: active means survival T/C of 150% or more; inactive means T/C below 125% in these data.

Test system: P388 leukemia ip, CD2F1 mice, survival T/C
Assay: NCI In Vivo Anticancer Drug Screen. Data for tumor model P388 Leukemia (intraperitoneal) in CD2F1 (CDF1) mice
Details: endpoint: median survival time, higher = longer survival
Method in brief: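 Mice carrying the transplanted tumor received test compound or vehicle. Survival was recorded in each group, and the value is the treated-group measurement divided by that of the vehicle-treated control group.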

[1] = dose: 50.0 mg/kg/injection, schedule: Q01DX009 (ip), vehicle: saline with Tween-80
[2] = dose: 100.0 mg/kg/injection, schedule: Q01DX009 (ip), vehicle: saline with Tween-80
[3] = dose: 50.0 mg/kg/injection, schedule: Q01DX005 (ip), vehicle: saline with Tween-80
[4] = dose: 100.0 mg/kg/injection, schedule: Q01DX005 (ip), vehicle: saline with Tween-80
[5] = dose: 200.0 mg/kg/injection, schedule: Q01DX005 (ip), vehicle: saline with Tween-80
[6] = dose: 60.0 mg/kg/injection, schedule: Q01DX005 (ip), vehicle: saline with Tween-80
[7] = dose: 120.0 mg/kg/injection, schedule: Q01DX005 (ip), vehicle: saline with Tween-80
[8] = dose: 240.0 mg/kg/injection, schedule: Q01DX005 (ip), vehicle: saline with Tween-80
[9] = dose: 50.0 mg/kg/injection, schedule: Q01DX005 (ip), vehicle: Klucel (hydroxypropylcellulose) (HPC)
[10] = dose: 100.0 mg/kg/injection, schedule: Q01DX005 (ip), vehicle: Klucel (hydroxypropylcellulose) (HPC)
[11] = dose: 200.0 mg/kg/injection, schedule: Q01DX005 (ip), vehicle: Klucel (hydroxypropylcellulose) (HPC)
[12] = dose: 100.0 mg/kg/injection, schedule: Q04DX003 (ip), vehicle: saline
[13] = dose: 200.0 mg/kg/injection, schedule: Q04DX003 (ip), vehicle: saline
[14] = dose: 400.0 mg/kg/injection, schedule: Q04DX003 (ip), vehicle: saline

Measured: T/C

C=C(C)C(O)C(O)c1cc2ccc(=O)oc2cc1OC (stereo unspecified)
inactive: dose: 12.5 mg/kg/injection, schedule: Q01DX009 (ip), vehicle: saline with Tween-80 99 % of control | dose: 25.0 mg/kg/injection, schedule: Q01DX009 (ip), vehicle: saline with Tween-80 99 % of control | [1] 99 % of control | [2] 107 % of control

CCOC(=O)C1(C)C(=O)CC(c2ccccc2)CC1c1ccccc1 (stereo unspecified)
inactive: [3] 100 % of control | [4] 96 % of control | [5] 99 % of control

COC(=O)c1ncn(C(C(=O)OC)C(=O)OC)c1O
inactive: [6] 104 % of control | [7] 100 % of control | [8] 113 % of control

CC(NC(=O)C(Cc1cnc[nH]1)NC(=O)OCc1ccccc1)C(=O)O (stereo unspecified)
inactive: [9] 96 % of control | [10] 96 % of control | [11] 96 % of control

Cc1cccc(NC(=O)NC2CCCC(C)C2)c1 (stereo unspecified)
inactive: dose: 50.0 mg/kg/injection, schedule: Q01DX009 (ip), vehicle: saline 98 % of control | dose: 100.0 mg/kg/injection, schedule: Q01DX009 (ip), vehicle: saline 93 % of control | dose: 200.0 mg/kg/injection, schedule: Q01DX009 (ip), vehicle: saline 91 % of control

Cc1ncc(C[n+]2cccc(CCO)c2C)c(N)n1
inactive: dose: 50.0 mg/kg/injection, schedule: Q04DX003 (ip), vehicle: saline 97 % of control | [12] 103 % of control | [13] 100 % of control

Nc1ccc(CCCCc2ccc(S(=O)(=O)F)cc2Cl)c(Cl)c1
inactive: dose: 15.0 mg/kg/injection, schedule: Q01DX005 (ip), vehicle: saline with Tween-80 101 % of control | dose: 30.0 mg/kg/injection, schedule: Q01DX005 (ip), vehicle: saline with Tween-80 118 % of control | [1] 91 % of control | [6] 93 % of control | [2] 99 % of control | [7] 87 % of control | dose: 200.0 mg/kg/injection, schedule: Q01DX009 (ip), vehicle: saline with Tween-80 98 % of control | [8] 92 % of control

CCN(CC)C(=O)N(O)C1CCCCC1
inactive: [6] 105 % of control | [7] 97 % of control | [8] 103 % of control

CCCCOC(=O)c1ccccn1
inactive: dose: 50.0 mg/kg/injection, schedule: Q04DX003 (ip), vehicle: saline with Tween-80 95 % of control | dose: 100.0 mg/kg/injection, schedule: Q04DX003 (ip), vehicle: saline with Tween-80 100 % of control | dose: 200.0 mg/kg/injection, schedule: Q04DX003 (ip), vehicle: saline with Tween-80 95 % of control

COc1ccc2nc(NC(=O)Nc3ccc(Cc4ccc(NC(=O)Nc5nc6ccc(OC)cc6s5)cc4)cc3)sc2c1
inactive: dose: 50.0 mg/kg/injection, schedule: Q01DX009 (ip), vehicle: Klucel (hydroxypropylcellulose) (HPC) 100 % of control | dose: 100.0 mg/kg/injection, schedule: Q01DX009 (ip), vehicle: Klucel (hydroxypropylcellulose) (HPC) 94 % of control | dose: 200.0 mg/kg/injection, schedule: Q01DX009 (ip), vehicle: Klucel (hydroxypropylcellulose) (HPC) 99 % of control

COc1ccc2c(c1OC)C(=O)OC2c1cc(Br)c(O)c(C2OC(=O)c3c2ccc(OC)c3OC)c1 (stereo unspecified)
inactive: [1] 90 % of control | [2] 86 % of control | [12] 87 % of control | [14] 87 % of control

COC1OC(C(C)Br)C2OC(C)(C)OC12 (stereo unspecified)
inactive: [6] 105 % of control | [7] 102 % of control | [8] 107 % of control

COC(=O)N1[C@@H]2C=CC=CC=C2[C@@H](OC)N1C(=O)OC
inactive: [3] 101 % of control | [4] 103 % of control | [5] 103 % of control

S[C@@H]1CCCN1
inactive: dose: 50.0 mg/kg/injection, schedule: Q01DX005 (ip), vehicle: saline 97 % of control | dose: 100.0 mg/kg/injection, schedule: Q01DX005 (ip), vehicle: saline 102 % of control | dose: 200.0 mg/kg/injection, schedule: Q01DX005 (ip), vehicle: saline 99 % of control

CC(C(=O)O)C(Nc1ncnc2c1ncn2C1OC(CO)C(O)C1O)C(=O)O (stereo unspecified)
inactive: [12] 98 % of control | [13] 100 % of control | [14] 98 % of control

CCCCC(NC(=O)OC(C)(C)C)C(=O)O (stereo unspecified)
inactive: [9] 98 % of control | [10] 99 % of control | [11] 104 % of control

CCCCN(CCCC)C(=O)C(O)C(=O)N(CCCC)CCCC
inactive: dose: 25.0 mg/kg/injection, schedule: Q01DX005 (ip), vehicle: Klucel (hydroxypropylcellulose) (HPC) 104 % of control | [9] 104 % of control | [10] 98 % of control | [11] 109 % of control

CCCNC(=O)CCC(NS(=O)(=O)c1ccccc1)C(=O)O (stereo unspecified)
inactive: dose: 100.0 mg/kg/injection, schedule: Q04DX002 (ip), vehicle: Klucel (hydroxypropylcellulose) (HPC) 91 % of control | dose: 200.0 mg/kg/injection, schedule: Q04DX002 (ip), vehicle: Klucel (hydroxypropylcellulose) (HPC) 102 % of control | dose: 400.0 mg/kg/injection, schedule: Q04DX002 (ip), vehicle: Klucel (hydroxypropylcellulose) (HPC) 96 % of control

COC12CC(C)(C)OC1C(C)C1C(CC3(C)C4CC=C5C(C=C(O)C(=O)C5(C)C)C4(C)C(=O)CC13C)O2 (stereo unspecified)
inactive: dose: 100.0 mg/kg/injection, schedule: Q04DX002 (ip), vehicle: saline 100 % of control | dose: 200.0 mg/kg/injection, schedule: Q04DX002 (ip), vehicle: saline 100 % of control | dose: 400.0 mg/kg/injection, schedule: Q04DX002 (ip), vehicle: saline 100 % of control

CCCCNC(=O)OCc1ccc(NCCN(CC)CC)c2c(=O)c3ccccc3sc12
inactive: dose: 1.56 mg/kg/injection, schedule: Q01DX005 (ip), vehicle: distilled water + Tween-80 105 % of control and 97 % of control | dose: 3.12 mg/kg/injection, schedule: Q01DX005 (ip), vehicle: distilled water + Tween-80 102 % of control and 112 % of control and 119 % of control | dose: 6.25 mg/kg/injection, schedule: Q01DX005 (ip), vehicle: distilled water + Tween-80 101 % of control and 111 % of control

O=C1NC(=S)N/C1=C/c1ccc2c(c1)CCC2
inactive: dose: 100.0 mg/kg/injection, schedule: Q01DX001 (ip), vehicle: saline with Tween-80 100 % of control | dose: 200.0 mg/kg/injection, schedule: Q01DX001 (ip), vehicle: saline with Tween-80 100 % of control | dose: 400.0 mg/kg/injection, schedule: Q01DX001 (ip), vehicle: saline with Tween-80 95 % of control

CCCCNC(=O)OCCN(C)CCOC(=O)NCCCC
inactive: dose: 60.0 mg/kg/injection, schedule: Q01DX005 (ip), vehicle: saline 107 % of control | dose: 120.0 mg/kg/injection, schedule: Q01DX005 (ip), vehicle: saline 101 % of control

COc1cc(O)c(C(C)=O)c2c1C=CC(C)(C)O2
inactive: [3] 102 % of control | [4] 105 % of control | [5] 100 % of control

OCC(O)C(O)C1[O][Sb][O]C1CO (stereo unspecified)
inactive: [3] 100 % of control and 101 % of control | [4] 96 % of control and 100 % of control and 104 % of control | [5] 100 % of control and 96 % of control and 104 % of control

CCCCN(CCCC)CCNC(c1ccc(OC)cc1)c1ccc(OC)cc1
inactive: [3] 98 % of control | [4] 93 % of control | [5] 96 % of control

COc1ccc(C2CC(=O)N(c3nc(C)cc(C)n3)C(=O)C2)cc1
inactive: [12] 96 % of control | [13] 102 % of control | [14] 100 % of control

O=C1OC2(CC1n1cnc3ccccc3c1=O)C(=O)Nc1ccccc12 (stereo unspecified)
inactive: dose: 8.75 mg/kg/injection, schedule: Q01DX005 (ip), vehicle: Klucel (hydroxypropylcellulose) (HPC) 111 % of control | dose: 17.5 mg/kg/injection, schedule: Q01DX005 (ip), vehicle: Klucel (hydroxypropylcellulose) (HPC) 90 % of control | dose: 35.0 mg/kg/injection, schedule: Q01DX005 (ip), vehicle: Klucel (hydroxypropylcellulose) (HPC) 91 % of control

CC(=O)CC(=NC(C)(C)C)Nc1ncc(Cl)c2ccccc12
inactive: [3] 94 % of control | [4] 92 % of control | [5] 97 % of control
